These results are taken from publication PMC12586182 (Frontiers in Oncology, 2025).

The target in data set [1] is activated B-RAF (Homo sapiens, UniProt P15056). In words: Surface plasmon resonance binding (Biacore 1S+). The note with it: SPR, B-RAF. A general note: SPR reads the build-up and loss of mass on a sensor chip optically.
In data set [2] the target is biotinylated, inactive MEK1 (Homo sapiens, UniProt Q02750). In words: Surface plasmon resonance binding (Biacore 1S+). The note with it: SPR.
Chain of biotinylated, inactive MEK1 (Q02750 whole entry): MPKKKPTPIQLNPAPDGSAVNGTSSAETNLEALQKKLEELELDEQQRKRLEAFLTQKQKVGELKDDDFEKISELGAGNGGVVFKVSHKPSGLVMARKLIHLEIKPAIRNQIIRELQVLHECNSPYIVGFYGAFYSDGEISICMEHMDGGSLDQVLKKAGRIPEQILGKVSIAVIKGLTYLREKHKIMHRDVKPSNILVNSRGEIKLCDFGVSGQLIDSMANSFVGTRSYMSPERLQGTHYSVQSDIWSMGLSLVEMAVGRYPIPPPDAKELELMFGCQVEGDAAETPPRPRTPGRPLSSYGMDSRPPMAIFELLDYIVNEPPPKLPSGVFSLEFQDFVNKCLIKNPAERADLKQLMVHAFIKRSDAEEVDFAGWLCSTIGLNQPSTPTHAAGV

Chain of activated B-RAF (P15056 whole entry): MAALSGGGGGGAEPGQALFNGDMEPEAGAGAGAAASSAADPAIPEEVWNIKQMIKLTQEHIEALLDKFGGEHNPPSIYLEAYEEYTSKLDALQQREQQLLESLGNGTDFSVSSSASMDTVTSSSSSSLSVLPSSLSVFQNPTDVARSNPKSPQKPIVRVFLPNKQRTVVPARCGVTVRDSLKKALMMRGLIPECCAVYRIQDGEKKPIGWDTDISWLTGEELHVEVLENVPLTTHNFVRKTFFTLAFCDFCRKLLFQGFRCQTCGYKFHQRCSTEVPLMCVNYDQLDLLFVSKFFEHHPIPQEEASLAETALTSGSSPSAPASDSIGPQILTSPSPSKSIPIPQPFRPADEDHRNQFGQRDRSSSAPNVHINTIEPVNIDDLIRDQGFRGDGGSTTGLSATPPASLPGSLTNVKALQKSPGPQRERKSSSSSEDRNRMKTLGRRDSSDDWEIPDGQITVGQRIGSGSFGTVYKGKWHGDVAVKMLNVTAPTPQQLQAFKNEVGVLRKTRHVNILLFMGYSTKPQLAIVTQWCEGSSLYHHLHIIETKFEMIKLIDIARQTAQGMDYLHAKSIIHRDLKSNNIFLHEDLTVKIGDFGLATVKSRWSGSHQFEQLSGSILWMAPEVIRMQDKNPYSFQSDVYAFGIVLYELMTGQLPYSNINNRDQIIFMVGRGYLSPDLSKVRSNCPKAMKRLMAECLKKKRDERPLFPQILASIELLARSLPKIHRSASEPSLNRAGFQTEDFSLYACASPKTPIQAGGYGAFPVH

Regarding `COC(=O)N[C@@H](C)CNc1nccc(-c2cn(C(C)C)nc2-c2cc(Cl)cc(NS(C)(=O)=O)c2F)n1` [encorafenib], in data set [1], the “log (kd)” value is -4.40, the “log(ka)” value is listed as 5.36 and the t1/2 was found to be 4.8056 h.

Turning to `CC(=O)Nc1cccc(-n2c(=O)n(C3CC3)c(=O)c3c(Nc4ccc(I)cc4F)n(C)c(=O)c(C)c32)c1` [trametinib], in data set [2], the “log (kd)” value is recorded as -3.87, the “log(ka)” value turned out to be 5.34 and the t1/2 came to 1.428 h.
